Test results as given in article PMC11249646, “Small-Molecule Disruptors of the Interaction between Calcium- and Integrin-Binding Protein 1 and Integrin αIIbβ3 as Novel Antiplatelet Agents” (ACS Pharmacology & Translational Science, 2024).
Like-named read-outs stand apart in the source and are kept apart here.

Assays:
[1] = biological target: T1, CIB1 and αIIb interaction (CIB1-GST : F-αIIb peptide) (Homo sapiens, UniProt Q99828); experiment: FP assay, 1536-well qHTS format (primary and confirmatory screen); type: binding; settings: for CONFIRMATORY SCREEN Curve Class / Curve Class (confirmatory screen): qHTS curve class
T1 construct: made in house; host or cells: BL-21 plus RIL cells (E. coli)
T1 sequence (Q99828 1-191): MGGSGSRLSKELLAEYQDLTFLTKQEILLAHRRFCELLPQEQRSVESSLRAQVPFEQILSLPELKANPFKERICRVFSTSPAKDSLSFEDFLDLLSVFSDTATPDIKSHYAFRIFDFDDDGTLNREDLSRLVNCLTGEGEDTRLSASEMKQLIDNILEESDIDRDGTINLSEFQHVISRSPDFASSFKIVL

[2] = biological target: T2, GST-CIB1 : F-scrambled peptide (Homo sapiens, UniProt Q99828); experiment: FP scrambled-peptide counter screen, 1536-well format; type: binding; settings: for COUNTERSCREEN Curve Class / Curve Class (counterscreen): qHTS curve class; for IC50: read-out: IC50 [μM] (counterscreen)
T2 construct: made in house; host or cells: BL-21 plus RIL cells (E. coli)
T2 sequence (Q99828 1-191): T1 sequence (Q99828 1-191)

[3] = qHTS FP screen hits, Table S2, negative = inhibition
[4] = qHTS FP screen hits, Table S2, read-out: IC50
[5] = confirmatory screen, negative sign = inhibitory curve
[6] = confirmatory screen, read-out: IC50 [μM] (confirmatory screen)
[7] = qHTS primary screen hits, Table S2, negative = inhibition
[8] = qHTS primary screen hits, Table S2, negative sign = inhibitory curve, several classes where COUNT > 1
[9] = counterscreen, negative sign = inhibitory curve
[10] = qHTS primary screen hits, Table S2, read-out: IC50
[11] = Table S3, confirmatory screen, a negative sign marks inhibitory curves
[12] = Table S3, confirmatory screen, negative = inhibition
[13] = Table S3, counterscreen, YES/NO call
[14] = Table S3, counterscreen, a negative sign marks inhibitory curves
[15] = Table S3, counterscreen, negative = inhibition
[16] = qHTS FP screen hits, Table S2, one class per curve where COUNT > 1, negative sign = inhibitory curve
[17] = Table S3, confirmatory screen, YES/NO call
[18] = Table S3, confirmatory screen, read-out: IC50 [μM] (confirmatory screen)

| SMILES | Efficacy (%) [1, 3] | IC50 [1, 4] | Efficacy (%) [1, 7] | Curve Class [1, 8] | IC50 [1, 10] | Curve Class (confirmatory screen) [1, 11] | Efficacy (%) (confirmatory screen) [1, 12] | Curve Class (counterscreen) [2, 14] | Efficacy (%) (counterscreen) [2, 15] | IC50 ([2]; Table S3, counterscreen) | other results |
| --- | --- | --- | --- | --- | --- | --- | --- | --- | --- | --- | --- |
| CC(O)c1ccc(-c2ccc3ncnc(N4CCOCC4)c3c2)o1.O=C(O)C(F)(F)F (stereo not shown) [NCGC00238381-02] | -19% | 14.1 µM | – | – | – | – | – | – | – | – | CONFIRMATORY SCREEN Efficacy (%) ([1]; confirmatory screen): -26%; CONFIRMATORY SCREEN Curve Class ([1]; confirmatory screen): 4; COUNTERSCREEN Efficacy (%) ([2]; counterscreen): -14%; COUNTERSCREEN Curve Class ([2]; counterscreen): 4 |
| O=C(Nc1nc(-c2ccccc2)cs1)c1ccncc1NS(=O)(=O)c1cccs1.O=C(O)C(F)(F)F [NCGC00345032-01] | – | – | -59% | -2.2 | – | – | – | – | – | – | Efficacy (%) (confirmatory screen) ([1]; confirmatory screen): -85%; Confirm? (confirmatory screen) ([1]; confirmatory screen, YES/NO): YES; Curve Class (confirmatory screen) [1, 5]: -1.2; IC50 [1, 6]: 25.1 µM; Efficacy (%) (counterscreen) ([2]; counterscreen): -52%; Confirm? (counterscreen) ([2]; counterscreen, YES/NO): YES; Curve Class (counterscreen) [2, 9]: -2.2; IC50 ([2]; counterscreen): 79.4 µM |
| NC(=O)c1ccc(O)c2ncccc12 [NCGC00184888-01] | – | – | -24% | -1.4 | 14.1 µM | – | – | – | – | – | CONFIRMATORY SCREEN Efficacy (%) ([1]; confirmatory screen): -19%; CONFIRMATORY SCREEN Curve Class ([1]; confirmatory screen): 4; COUNTERSCREEN Efficacy (%) ([2]; counterscreen): -10%; COUNTERSCREEN Curve Class ([2]; counterscreen): 4 |
| CN(CC(=O)Nc1ccc(N2CCOCC2)cc1)Cc1c(O)ccc2ccccc12.O=C(O)C(F)(F)F [NCGC00229682-01] | – | – | -68% | -2.2 | 39.8 µM | 4 | -47% | -2.2 | -57% | 70.8 µM | Confirm? (counterscreen) [2, 13]: YES |
| CN(C)CCCn1cc(C2=C(c3c[nH]c4ccccc34)C(=O)NC2=O)c2ccccc21 [NCGC00024760-07] | -53% | 39.8 µM | – | – | – | – | – | – | – | – | Efficacy (%) (confirmatory screen) ([1]; confirmatory screen): -63%; Confirm? (confirmatory screen) ([1]; confirmatory screen, YES/NO): YES; Curve Class (confirmatory screen) [1, 5]: -2.2; IC50 [1, 6]: 44.7 µM; Curve Class [1, 16]: -2.2; Efficacy (%) (counterscreen) ([2]; counterscreen): -54%; Curve Class (counterscreen) [2, 9]: -2.2; IC50 ([2]; counterscreen): 35.5 µM |
| NC[C@@H](O)c1ccc(O)c(O)c1.O=C(O)C(O)C(O)C(=O)O [NCGC00094737-04] | – | – | – | – | – | – | – | – | – | – | Efficacy (%) (confirmatory screen) ([1]; confirmatory screen): -31%; Confirm? (confirmatory screen) ([1]; confirmatory screen, YES/NO): YES; Curve Class (confirmatory screen) [1, 5]: -3; IC50 [1, 6]: 44.7 µM; Efficacy (%) (counterscreen) ([2]; counterscreen): 82%; Confirm? (counterscreen) ([2]; counterscreen, YES/NO): YES; Curve Class (counterscreen) [2, 9]: 3; IC50 ([2]; counterscreen): 100 µM |
| CC(=O)NC(c1cccs1)c1cc(Br)c2cccnc2c1O (stereo not shown) [NCGC00183685-02] | – | – | – | – | – | – | – | – | – | – | CONFIRMATORY SCREEN Efficacy (%) ([1]; confirmatory screen): -36%; CONFIRMATORY SCREEN Curve Class ([1]; confirmatory screen): 4; COUNTERSCREEN Efficacy (%) ([2]; counterscreen): -11%; COUNTERSCREEN Curve Class ([2]; counterscreen): 4 |
| CC(C)c1ccccc1Cc1cc(C(=O)Nc2ccc(S(=O)(=O)c3ccccc3C(C)(C)C)cc2)c(O)c(O)c1O [NCGC00263208-01] | – | – | -27% | – | 15.2 µM | – | – | – | – | – | Efficacy (%) (confirmatory screen) ([1]; confirmatory screen): -56%; Confirm? (confirmatory screen) ([1]; confirmatory screen, YES/NO): YES; Curve Class (confirmatory screen) [1, 5]: -1.2; IC50 [1, 6]: 14.1 µM; Curve Class ([1]; qHTS primary screen hits, Table S2, negative sign = inhibitory curve): -2.4; Efficacy (%) (counterscreen) ([2]; counterscreen): -40%; Curve Class (counterscreen) [2, 9]: -1.2; IC50 ([2]; counterscreen): 15.8 µM |
| CC[C@@H](c1ccc(F)c(F)c1)n1c(C(=O)OC)c(-c2ccno2)[nH]c1=S [NCGC00387465-01] | -79% | 79.4 µM | – | – | – | 4 | -22% | 4 | 0% | – | Curve Class [1, 16]: -2.2 |
| CCN1CCN(c2cccc(Nc3nn4c(=O)c5ccccc5nc4s3)c2)CC1.Cl [NCGC00187806-01] | – | – | -24% | -2.4 | 35.5 µM | – | – | – | – | – | Efficacy (%) (confirmatory screen) ([1]; confirmatory screen): -38%; Confirm? (confirmatory screen) ([1]; confirmatory screen, YES/NO): YES; Curve Class (confirmatory screen) [1, 5]: -2.4; IC50 [1, 6]: 44.7 µM; Efficacy (%) (counterscreen) ([2]; counterscreen): -58%; Curve Class (counterscreen) [2, 9]: -3; IC50 ([2]; counterscreen): 89.1 µM |
| Cl.O=S(=O)(Nc1nccs1)c1ccc(NCc2cc(Cl)cc(Br)c2O)cc1 [NCGC00273965-01] | – | – | -33% | -1.4 | 11.2 µM | – | – | – | – | – | CONFIRMATORY SCREEN Efficacy (%) ([1]; confirmatory screen): -19%; CONFIRMATORY SCREEN Curve Class ([1]; confirmatory screen): 4; COUNTERSCREEN Efficacy (%) ([2]; counterscreen): 0%; COUNTERSCREEN Curve Class ([2]; counterscreen): 4 |
| COc1ccc(CC(=O)Nc2ccc(S(=O)(=O)Nc3cc(C)on3)cc2)cc1C.O=C(O)C(F)(F)F [NCGC00244861-01] | – | – | -19% | -1.4 | 11.2 µM | – | – | – | – | – | Efficacy (%) (confirmatory screen) ([1]; confirmatory screen): -69%; Confirm? (confirmatory screen) ([1]; confirmatory screen, YES/NO): YES; Curve Class (confirmatory screen) [1, 5]: -2.4; IC50 [1, 6]: 39.8 µM; Efficacy (%) (counterscreen) ([2]; counterscreen): -14%; Confirm? (counterscreen) ([2]; counterscreen, YES/NO): YES; Curve Class (counterscreen) [2, 9]: 4 |
| O=C(N/N=C1\C(=O)N(CCc2ccccc2)c2ccccc21)c1cccnc1 [NCGC00420788-01] | – | – | -28% | -1.4 | 22.4 µM | -2.2 | -58% | -2.2 | -65% | 44.7 µM | Confirm? (confirmatory screen) [1, 17]: YES; IC50 [1, 18]: 39.8 µM |
| CN(C)CCN1C(=O)c2cccc3cc(N)cc(c23)C1=O [NCGC00346513-01] | – | – | -32% | -1.2 | 1.1 µM | – | – | – | – | – | CONFIRMATORY SCREEN Efficacy (%) ([1]; confirmatory screen): -50%; CONFIRMATORY SCREEN Curve Class ([1]; confirmatory screen): 4; COUNTERSCREEN Efficacy (%) ([2]; counterscreen): -24%; COUNTERSCREEN Curve Class ([2]; counterscreen): 4 |
| Cc1c(Cc2ccc3ccccc3n2)c2cc(F)ccc2n1CC(=O)O [NCGC00386286-04] | -116% | 44.7 µM | – | – | – | -2.1 | -124% | -2.1 | -123% | 44.7 µM | Confirm? (confirmatory screen) [1, 17]: YES; IC50 [1, 18]: 50.1 µM; Curve Class [1, 16]: -2.1 |
| O=C(O)C(F)(F)F.O=C1CCCC2=C1C1(CCCOC1)N=C(Nc1nc3ccccc3o1)N2 (stereo not shown) [NCGC00188575-01] | – | – | -34% | -2.2 | 28.2 µM | – | – | – | – | – | CONFIRMATORY SCREEN Efficacy (%) ([1]; confirmatory screen): -18%; CONFIRMATORY SCREEN Curve Class ([1]; confirmatory screen): 4; COUNTERSCREEN Efficacy (%) ([2]; counterscreen): -21%; COUNTERSCREEN Curve Class ([2]; counterscreen): 4 |
| CCCCCCCCn1cc(CC(N)=O)c2cc(-c3cccc(C)c3)ccc21.O=C(O)C(F)(F)F [NCGC00348156-02] | -74% | 50.1 µM | – | – | – | -2.4 | -95% | -2.1 | -121% | 39.8 µM | Confirm? (confirmatory screen) [1, 17]: YES; IC50 [1, 18]: 44.7 µM |
| O=C(Cc1ccccc1)NC(c1ccco1)c1cc(Cl)c2cccnc2c1O.O=C(O)C(F)(F)F (stereo not shown) [NCGC00188377-01] | – | – | -35% | -2.2 | 39.8 µM | 4 | -25% | 3 | 61% | 89.1 µM | – |
| COc1ccccc1Nc1ccc2c(O)cc(S(=O)(=O)O)cc2c1.O=C(O)C(F)(F)F [NCGC00372954-01] | -41% | 35.5 µM | – | – | – | -2.1 | -93% | -2.4 | -89% | 22.4 µM | Confirm? (confirmatory screen) [1, 17]: YES; IC50 [1, 18]: 25.1 µM; Curve Class [1, 16]: -2.2 |
| Cc1ccc([N+](=O)[O-])[c]2c1[O][Hg]2 [NCGC00249897-01] | – | – | -49% | -1.4 | 3.5 µM | 4 | 0% | – | 111% | – | – |
| CN(C)CCc1c[nH]c2cccc(O)c12 [NCGC00247728-01] | – | – | -105% | -2.3 | 28.2 µM | -2.2 | -101% | -2.1 | -126% | 89.1 µM | Confirm? (confirmatory screen) [1, 17]: YES; IC50 [1, 18]: 112 µM |
| Cc1coc2c1C(=O)C(=O)c1c-2ccc2c1CCCC2(C)C [NCGC00095709-08] | -65% | 79.4 µM | – | – | – | -1.2 | -67% | -2.2 | -67% | 39.8 µM | Confirm? (confirmatory screen) [1, 17]: YES; IC50 [1, 18]: 39.8 µM; Curve Class [1, 16]: -2.2 |
| CC(=O)Nc1sc2c(c1-c1nc3ccccc3s1)CNC2.O=C(O)C(F)(F)F [NCGC00185090-03] | -28% | 12.6 µM | – | – | – | 4 | -34% | -2.4 | -43% | 50.1 µM | Confirm? (counterscreen) [2, 13]: YES |
